Measured values from paper PMC8669469, “A Novel Locally c-di-GMP-Controlled Exopolysaccharide Synthase Required for Bacteriophage N4 Infection of Escherichia coli” (mBio, 2021).

Target: T1, NfrB (Escherichia coli, UniProt P0AFA5)
T1 construct: soluble MshEN domain, NfrB^414-745
Assay: microscale thermophoresis with purified protein; DRaCALA with […]-c-di-GMP and competition by unlabeled c-di-GMP
Assay type: binding

T1 sequence (P0AFA5 414-745): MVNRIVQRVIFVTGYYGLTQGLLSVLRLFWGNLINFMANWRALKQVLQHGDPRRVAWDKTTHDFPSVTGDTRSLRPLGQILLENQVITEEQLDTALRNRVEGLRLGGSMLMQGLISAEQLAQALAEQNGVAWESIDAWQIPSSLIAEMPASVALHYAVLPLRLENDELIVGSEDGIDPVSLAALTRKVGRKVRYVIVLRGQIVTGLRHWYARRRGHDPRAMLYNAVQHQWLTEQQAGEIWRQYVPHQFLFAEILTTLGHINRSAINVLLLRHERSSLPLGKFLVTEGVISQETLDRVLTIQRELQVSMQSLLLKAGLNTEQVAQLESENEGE

Structure (SMILES): Nc1nc2c(ncn2[C@@H]2O[C@@H]3CO[P@](=O)(O)O[C@H]4[C@@H](O)[C@H](n5cnc6c(=O)[nH]c(N)nc65)O[C@@H]4CO[P@](=O)(O)O[C@H]3[C@H]2O)c(=O)[nH]1 [c-di-GMP]
- Kd: 1000 ± 350 nM
